# Biological target: T1, GLP-1 Receptor (Homo sapiens, UniProt P43220)
# T1 construct: host or cells: HEK293/GLP1R/CRE-LUC (HEK293/CRE-Luc stably expressing the GLP-1 receptor)
# Test: GLP-1R agonist cAMP stimulation assay (HEK293/GLP1R/CRE-LUC cells, Cisbio cAMP dynamic 2 kit);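 also: compounds tested in half-log serial dilution, cAMP detected with cAMP-d2 and anti-cAMP cryptate antibody reagents after 1 h at room temperature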
# Type: cell-based
# Details: HEK293/CRE-Luc cell line stably expressing the GLP-1 Receptor; 1000 cells/well; 30 min at 37° C.; 0.5 mM IBMX, 0.1% BSA; read-out: GLP1R cAMP Stimulation DR: EC50
# T1 sequence (P43220 24-463, species assumed): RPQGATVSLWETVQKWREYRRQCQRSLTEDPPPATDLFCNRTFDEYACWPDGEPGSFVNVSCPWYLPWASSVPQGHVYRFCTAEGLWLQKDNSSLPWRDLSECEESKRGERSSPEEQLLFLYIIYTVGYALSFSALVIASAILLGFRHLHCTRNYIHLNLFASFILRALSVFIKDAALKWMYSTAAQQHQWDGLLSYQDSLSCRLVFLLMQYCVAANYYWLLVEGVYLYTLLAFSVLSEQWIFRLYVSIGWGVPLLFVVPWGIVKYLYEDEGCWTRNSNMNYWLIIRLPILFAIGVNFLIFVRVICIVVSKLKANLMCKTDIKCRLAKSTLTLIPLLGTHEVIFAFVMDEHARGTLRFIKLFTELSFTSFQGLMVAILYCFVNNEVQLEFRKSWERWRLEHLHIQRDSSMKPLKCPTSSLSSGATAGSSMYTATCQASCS
row,SMILES,EC50 [nM]
1,"O=C(O)/C=C/c1nnc(CN2CCC(c3cccc(OCc4ccc(Cl)cc4F)n3)CC2)n1C[C@@H]1CCO1 [Compound 225a, (S,E)-3-(5-((4-(6-((4-chloro-2-fluorobenzyl)oxy)pyridin-2-yl)piperidin-1-yl)methyl)-4-(oxetan-2-ylmethyl)-4H-1,2,4-triazol-3-yl)acrylic acid]",0.26
2,"C[C@]1(c2ccc(Cl)cc2F)Oc2cccc(C3CCN(Cc4ncc(-c5nnc(C(F)(F)F)[nH]5)cc4CC4(C#N)CC4)CC3)c2O1 [Compound 258, 1-{[2-({4-[(2S)-2-(4-chloro-2-fluorophenyl)-2-methyl-2H-1,3-benzodioxol-4-yl]piperidin-1-yl}methyl)-5-[5-(trifluoromethyl)-4H-1,2,4-triazol-3-yl]pyridin-3-yl]methyl}cyclopropane-1-carbonitrile]",0.0061
3,"CC1(c2ccc(Cl)cc2F)Oc2cccc(C3CCN(Cc4nc(/C=C/C(=O)O)cn4Cc4ccno4)CC3)c2O1 (centres unmarked) [Compound 182, (E)-3-(2-((4-(2-(4-chloro-2-fluorophenyl)-2-methylbenzo[d][1,3]dioxol-4-yl)piperidin-1-yl)methyl)-1-(isoxazol-5-ylmethyl)-1H-imidazol-4-yl)acrylic acid]",93
4,"O=C(O)/C=C/c1cnc(CN2CCC(c3cccc4c3OC[C@@H](c3ccc(Cl)cc3)O4)CC2)n1Cc1ccccc1 [Compound 210a, (R,E)-3-(1-benzyl-2-((4-(2-(4-chlorophenyl)-2,3-dihydrobenzo[b][1,4]dioxin-5-yl)piperidin-1-yl)methyl)-1H-imidazol-5-yl)acrylic acid]",0.43
5,"Cc1ncoc1Cn1c(CCC(=O)O)cnc1CN1CCC(c2cccc3c2OC(C)(c2ccc(Cl)cc2F)O3)CC1 (centres unmarked) [Compound 241, 3-(2-((4-(2-(4-chloro-2-fluorophenyl)-2-methylbenzo[d][1,3]dioxol-4-yl)piperidin-1-yl)methyl)-1-((4-methyloxazol-5-yl)methyl)-1H-imidazol-5-yl)propanoic acid]",0.21
6,"O=C(O)/C=C/c1cnc(CN2CCC(c3cccc4c3OC[C@@H](c3ccc(Cl)cc3)O4)CC2)n1Cc1cccnc1 [Compound 209a, (R,E)-3-(2-((4-(2-(4-chlorophenyl)-2,3-dihydrobenzo[b][1,4]dioxin-5-yl)piperidin-1-yl)methyl)-1-(pyridin-3-ylmethyl)-1H-imidazol-5-yl)acrylic acid]",0.54
7,"O=C(O)CCc1cnc(CN2CCC(c3cccc(OCc4ccc(Cl)cc4F)n3)CC2)n1C[C@@H]1CCO1 [Compound 102a, (S)-3-(2-((4-(6-((4-chloro-2-fluorobenzyl)oxy)pyridin-2-yl)piperidin-1-yl)methyl)-1-(oxetan-2-ylmethyl)-1H-imidazol-5-yl)propanoic acid]",1.6
8,"CC1(c2ccc(Cl)cc2F)Oc2cccc(C3CCN(Cc4ncc(/C=C/C(=O)O)n4CC4(C#N)CC4)CC3)c2O1 (centres unmarked) [Compound 192, (E)-3-(2-((4-(2-(4-chloro-2-fluorophenyl)-2-methylbenzo[d][1,3]dioxol-4-yl)piperidin-1-yl)methyl)-1-((1-cyanocyclopropyl)methyl)-1H-imidazol-5-yl)acrylic acid]",0.073
9,"CC1(c2ccc(Cl)cc2F)Oc2cccc(C3CCN(Cc4nnc(/C=C/C(=O)O)n4C[C@@H]4CCO4)CC3)c2O1 (stereo partly drawn) [Compound 136a, (E)-3-(5-((4-(2-(4-chloro-2-fluorophenyl)-2-methylbenzo[d][1,3]dioxol-4-yl)piperidin-1-yl)methyl)-4-(((S)-oxetan-2-yl)methyl)-4H-1,2,4-triazol-3-yl)acrylic acid]",0.11
10,"CO[C@@H](C)Cn1c(/C=C/C(=O)O)cnc1CN1CCC(c2cccc3c2O[C@@](C)(c2ccc(Cl)cc2F)O3)CC1 [Compound 172a, (E)-3-(2-((4-((S)-2-(4-chloro-2-fluorophenyl)-2-methylbenzo[d][1,3]dioxol-4-yl)piperidin-1-yl)methyl)-1-((S)-2-methoxypropyl)-1H-imidazol-5-yl)acrylic acid]",0.048
11,"Cc1ncoc1Cn1c(/C=C/C(=O)O)cnc1CN1CCC(c2cccc3c2OC[C@@H](c2ccc(Cl)cc2)O3)CC1 [Compound 199a, (R,E)-3-(2-((4-(2-(4-chlorophenyl)-2,3-dihydrobenzo [b][1,4]dioxin-5-yl)piperidin-1-yl)methyl)-1-((4-methyloxazol-5-yl)methyl)-1H-imidazol-5-yl)acrylic acid]",1.6
12,"CCn1cncc1Cn1c(CCC(=O)O)nnc1CN1CCC(c2cccc3c2OC[C@@H](c2ccc(Cl)cc2)O3)CC1 [Compound 246, (R)-3-(5-((4-(2-(4-chlorophenyl)-2,3-dihydrobenzo [b][1,4]dioxin-5-yl)piperidin-1-yl)methyl)-4-((1-ethyl-1H-imidazol-5-yl)methyl)-4H-1,2,4-triazol-3-yl)propanoic acid]",0.38
13,"CCOCCc1cc(-c2nnc(C(F)(F)F)[nH]2)cnc1CN1CCC(c2cccc3c2O[C@@](C)(c2ccc(Cl)cc2F)O3)CC1 [Compound 287, 2-({4-[(2S)-2-(4-chloro-2-fluorophenyl)-2-methyl-2H-1,3-benzodioxol-4-yl]piperidin-1-yl}methyl)-3-(2-ethoxyethyl)-5-[5-(trifluoromethyl)-4H-1,2,4-triazol-3-yl]pyridine]",0.87
14,"COCCc1cc(-c2nnc(C(F)(F)F)[nH]2)cnc1CN1CCC(c2cccc3c2O[C@@](C)(c2ccc(C#N)cc2F)O3)CC1 [Compound 260, 3-fluoro-4-[(2S)-4-(1-{[3-(2-methoxyethyl)-5-[5-(trifluoromethyl)-4H-1,2,4-triazol-3-yl]pyridin-2-yl]methyl}piperidin-4-yl)-2-methyl-2H-1,3-benzodioxol-2-yl]benzonitrile]",2.3
15,"COC1(Cn2c(/C=C/C(=O)O)cnc2CN2CCC(c3cccc4c3OC(C)(c3ccc(Cl)cc3F)O4)CC2)CC1 (centres unmarked) [Compound 196, (E)-3-(2-((4-(2-(4-chloro-2-fluorophenyl)-2-methylbenzo[d][1,3]dioxol-4-yl)piperidin-1-yl)methyl)-1-((1-methoxycyclopropyl)methyl)-1H-imidazol-5-yl)acrylic acid]",0.058
16,"COCC/C(=C\c1cnc(CN2CCC(c3cccc(OCc4ccc(Cl)cc4F)n3)CC2)n1C[C@@H]1CCO1)C(=O)O [Compound 216a, (S,E)-2-((2-((4-(6-((4-chloro-2-fluorobenzyl)oxy)pyridin-2-yl)piperidin-1-yl)methyl)-1-(oxetan-2-ylmethyl)-1H-imidazol-5-yl)methylene)-4-methoxybutanoic acid]",4.4
17,"Cc1cc(-c2n[nH]c(=O)o2)cnc1CN1CCC(c2cccc3c2OC(C)(c2ccc(Cl)cc2F)O3)CC1 (centres unmarked) [Compound 254, 5-[6-({4-[2-(4-chloro-2-fluorophenyl)-2-methyl-2H-1,3-benzodioxol-4-yl]piperidin-1-yl}methyl)-5-methylpyridin-3-yl]-2,3-dihydro-1,3,4-oxadiazol-2-one]",10

# Now from value to molecule:
row,EC50 [nM],SMILES
1,0.47,"COCCn1c(/C=C/C(=O)O)nnc1CN1CCC(c2cccc(OCc3ccc(Cl)cc3F)n2)CC1 [Compound 223, (E)-3-(5-((4-(6-((4-chloro-2-fluorobenzyl)oxy)pyridin-2-yl)piperidin-1-yl)methyl)-4-(2-methoxyethyl)-4H-1,2,4-triazol-3-yl)acrylic acid]"
2,0.0048,"CCn1cncc1Cn1c(/C=C/C(=O)O)nnc1CN1CCC(c2cccc(OCc3ccc(Cl)cc3F)n2)CC1 [Compound 228, (E)-3-(5-((4-(6-((4-chloro-2-fluorobenzyl)oxy)pyridin-2-yl)piperidin-1-yl)methyl)-4-((1-ethyl-1H-imidazol-5-yl)methyl)-4H-1,2,4-triazol-3-yl)acrylic acid]"
3,41,"O=C(O)/C=C/c1nnc(CN2CCC(c3cccc(OCc4ccc(Cl)cc4F)n3)CC2)n1CC(F)F [Compound 230, (E)-3-(5-((4-(6-((4-chloro-2-fluorobenzyl)oxy)pyridin-2-yl)piperidin-1-yl)methyl)-4-(2,2-difluoroethyl)-4H-1,2,4-triazol-3-yl)acrylic acid]"
4,2.7,"O=C(O)/C=C/c1nnc(CN2CCC(c3cccc(OCc4ccc(Cl)cc4F)n3)CC2)n1CC1CCC1 [Compound 229, (E)-3-(5-((4-(6-((4-chloro-2-fluorobenzyl)oxy)pyridin-2-yl)piperidin-1-yl)methyl)-4-(cyclobutylmethyl)-4H-1,2,4-triazol-3-yl)acrylic acid]"
5,5.5,"C/C(=C\c1cnc(CN2CCC(c3cccc(OCc4ccc(Cl)cc4F)n3)CC2)n1C)C(=O)O [Compound 110, (E)-3-(2-((4-(6-((4-chloro-2-fluorobenzyl)oxy)pyridin-2-yl)piperidin-1-yl)methyl)-1-methyl-1H-imidazol-5-yl)-2-methylacrylic acid]"
6,3300,Cc1cc(CCC(=O)O)cnc1CN1CCC(c2cccc(OCc3ccc(Cl)cc3F)n2)CC1 [Compound 117]
7,0.2,"CCn1cncc1Cn1c(/C=C/C(=O)O)cnc1CN1CCC(c2cccc3c2O[C@](C)(c2ccc(Cl)cc2F)O3)CC1 [Compound 139b, (R,E)-3-(2-((4-(2-(4-chloro-2-fluorophenyl)-2-methylbenzo[d][1,3]dioxol-4-yl)piperidin-1-yl)methyl)-1-((1-ethyl-1H-imidazol-5-yl)methyl)-1H-imidazol-5-4)acrylic acid]"
8,0.56,"COCCn1c(/C(F)=C/C(=O)O)cnc1CN1CCC(c2cccc(OCc3ccc(Cl)cc3F)n2)CC1 [Compound 221, (Z)-3-(2-((4-(6-((4-chloro-2-fluorobenzyl)oxy)pyridin-2-yl)piperidin-1-yl)methyl)-1-(2-methoxyethyl)-1H-imidazol-5-yl)-3-fluoroacrylic acid]"
9,1500,"O=C(O)COc1ccc(CN2CCC(c3cccc(OCc4ccc(Cl)cc4F)n3)CC2)nc1 [Compound 119, 2-((6-((4-(6-((4-chloro-2-fluorobenzyl)oxy)pyridin-2-yl)piperidin-1-yl)methyl)pyridin-3-yl)oxy)acetic acid]"
